From ChEMBL document CHEMBL1201862, “PubChem BioAssay data set” (2004)
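The compound was tested at five concentrations on cells cultured in 96-well plates, with a 48-hour exposure period. Abbreviation: GI50, concentration required for 50% inhibition of growth.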 The source made the active and inactive calls. No stated cut-off is given here; in the data, active = GI50 up to about 1.1 µM and inactive = higher.

Key:
Experiment in all cases: NCI anticancer screen, dose series, 48 h
HCC 2998 = system: HCC 2998
MDA-N = system: MDA-N
Malme-3M = system: Malme-3M
UACC-257 = system: UACC-257
KM12 = system: KM12
OVCAR-4 = system: OVCAR-4
HCT-116 = system: HCT-116
SK-MEL-28 = system: SK-MEL-28
ACHN = system: ACHN
M14 = system: M14
IGROV-1 = system: IGROV-1
K562 = system: K562
SNB-75 = system: SNB-75
NCI-H226 = system: NCI-H226
NCI-H460 = system: NCI-H460
SF-539 = system: SF-539
SF-295 = system: SF-295
SF-268 = system: SF-268

Measured: GI50

COc1c2occc2c(N)c2ccc(=O)oc12
inactive: HCC 2998 > 100 µM | MDA-N > 100 µM | Malme-3M > 100 µM | UACC-257 > 100 µM | KM12 > 100 µM | OVCAR-4 > 100 µM | HCT-116 > 100 µM | SK-MEL-28 > 100 µM | ACHN > 100 µM | M14 > 100 µM | IGROV-1 > 100 µM | K562 > 100 µM | SNB-75 17.2 µM | NCI-H226 29.5 µM | NCI-H460 > 100 µM | SF-539 75.2 µM | SF-295 > 100 µM | SF-268 > 100 µM

CC(=O)OC(C)c1cc2c(s1)C(=O)c1sccc1C2=O (stereo unspecified)
inactive: HCC 2998 1.99 µM | KM12 1.75 µM | OVCAR-4 1.96 µM | HCT-116 1.46 µM | ACHN 1.45 µM | IGROV-1 2.02 µM | K562 2.69 µM | SNB-75 1.29 µM | NCI-H226 2.04 µM
active: MDA-N 0.0735 µM | Malme-3M 0.21 µM | UACC-257 0.215 µM | SK-MEL-28 0.916 µM | M14 0.14 µM | NCI-H460 1.06 µM | SF-539 0.268 µM | SF-295 0.851 µM | SF-268 0.989 µM

Cc1ccc(C)c(C2NC(=O)c3ccccc3N2)c1 (stereo unspecified)
inactive: HCC 2998 2.8 µM | UACC-257 12 µM | KM12 2.99 µM | OVCAR-4 6.27 µM | SK-MEL-28 12.5 µM | ACHN 4.83 µM | IGROV-1 1.13 µM | NCI-H226 2.95 µM | SF-295 1.12 µM | SF-268 3.27 µM
active: MDA-N 0.0986 µM | Malme-3M 0.668 µM | HCT-116 0.601 µM | M14 0.719 µM | K562 0.274 µM | SNB-75 0.423 µM | NCI-H460 0.916 µM | SF-539 0.587 µM

COc1ccc2nc3cccc([N+](=O)[O-])c3c(NCCO)c2c1
active: HCC 2998 0.0146 µM | MDA-N 0.00895 µM | Malme-3M 0.016 µM | UACC-257 0.0277 µM | KM12 0.0255 µM | OVCAR-4 0.0386 µM | HCT-116 0.00178 µM | SK-MEL-28 0.0277 µM | ACHN 0.0105 µM | M14 0.00762 µM | IGROV-1 0.162 µM | K562 0.00199 µM | SNB-75 0.0942 µM | NCI-H226 0.0378 µM | NCI-H460 0.00378 µM | SF-539 0.0182 µM | SF-295 0.0684 µM | SF-268 0.0157 µM

O=C1NC2(CCNCC2)Oc2ccccc21
inactive: HCC 2998 > 100 µM | MDA-N > 100 µM | Malme-3M > 100 µM | UACC-257 > 100 µM | KM12 > 100 µM | OVCAR-4 > 100 µM | HCT-116 > 100 µM | SK-MEL-28 > 100 µM | ACHN > 100 µM | M14 > 100 µM | IGROV-1 > 100 µM | K562 > 100 µM | SNB-75 > 100 µM | NCI-H226 > 100 µM | NCI-H460 > 100 µM | SF-539 > 100 µM | SF-295 > 100 µM | SF-268 > 100 µM

Cn1c(=O)n2c(-c3ccccc3)c(-c3ccccc3)n2c1=O
inactive: HCC 2998 > 100 µM | MDA-N > 100 µM | Malme-3M > 100 µM | UACC-257 > 100 µM | KM12 > 100 µM | OVCAR-4 > 100 µM | HCT-116 > 100 µM | SK-MEL-28 > 100 µM | ACHN > 100 µM | M14 > 100 µM | IGROV-1 > 100 µM | K562 > 100 µM | SNB-75 99.1 µM | NCI-H226 > 100 µM | NCI-H460 > 100 µM | SF-539 > 100 µM | SF-295 > 100 µM

O=C1CC2(CCNCC2)C(=O)N1N1CCCCC1
inactive: HCC 2998 > 100 µM | MDA-N > 100 µM | Malme-3M > 100 µM | UACC-257 > 100 µM | KM12 > 100 µM | OVCAR-4 > 100 µM | HCT-116 > 100 µM | SK-MEL-28 > 100 µM | ACHN > 100 µM | M14 > 100 µM | IGROV-1 > 100 µM | K562 > 100 µM | SNB-75 > 100 µM | NCI-H226 > 100 µM | NCI-H460 > 100 µM | SF-539 > 100 µM | SF-295 > 100 µM | SF-268 > 100 µM

COc1cc(OC)c(/C=N/N=C(\N)NO)c(OC)c1
active: KM12 0.787 µM | SNB-75 0.0255 µM
inactive: HCC 2998 > 100 µM | MDA-N > 100 µM | Malme-3M > 100 µM | UACC-257 > 100 µM | OVCAR-4 > 100 µM | HCT-116 > 100 µM | SK-MEL-28 > 100 µM | ACHN 15.6 µM | M14 95.5 µM | IGROV-1 90.6 µM | K562 41.6 µM | NCI-H226 > 100 µM | NCI-H460 91.4 µM | SF-539 > 100 µM | SF-295 33 µM | SF-268 > 100 µM

CC1OC(O)CC(N(C)C)C1O.CC1OC(O)CCC1O.CCC1CC(O)c2c(O)c3c(c(O)c2C1O)C(=O)c1cccc(O)c1C3=O (stereo unspecified)
active: HCC 2998 0.0197 µM | MDA-N 0.0284 µM | Malme-3M 0.021 µM | UACC-257 0.0342 µM | KM12 0.0209 µM | OVCAR-4 0.0203 µM | HCT-116 0.00771 µM | SK-MEL-28 0.0266 µM | ACHN 0.0159 µM | M14 0.0188 µM | IGROV-1 0.0284 µM | K562 0.00597 µM | SNB-75 0.0136 µM | NCI-H226 0.0168 µM | NCI-H460 0.00486 µM | SF-539 0.0373 µM | SF-295 0.0323 µM | SF-268 0.0335 µM

CC(=O)N(C(C)=O)n1c(Cc2ccc(C)cc2)nn(C(C)=O)c1=O
inactive: HCC 2998 > 100 µM | MDA-N > 100 µM | Malme-3M > 100 µM | UACC-257 > 100 µM | KM12 > 100 µM | OVCAR-4 > 100 µM | HCT-116 > 100 µM | SK-MEL-28 > 100 µM | ACHN > 100 µM | M14 > 100 µM | IGROV-1 > 100 µM | K562 > 100 µM | SNB-75 > 100 µM | NCI-H226 > 100 µM | NCI-H460 > 100 µM | SF-539 > 100 µM | SF-295 > 100 µM | SF-268 > 100 µM

CC1CC2=C(C1)C(C1(C)C(=O)CC3C(C1=O)C3(C)C)C(C)C2=O (stereo unspecified)
inactive: HCC 2998 > 100 µM | MDA-N > 100 µM | Malme-3M > 100 µM | UACC-257 > 100 µM | KM12 > 100 µM | OVCAR-4 > 100 µM | HCT-116 > 100 µM | SK-MEL-28 > 100 µM | ACHN > 100 µM | M14 > 100 µM | IGROV-1 > 100 µM | K562 > 100 µM | SNB-75 > 100 µM | NCI-H226 > 100 µM | NCI-H460 > 100 µM | SF-539 > 100 µM | SF-295 > 100 µM | SF-268 > 100 µM

COc1cc(Nc2cc(Cl)cc(Cl)c2)nc(N)n1
inactive: HCC 2998 16.6 µM | MDA-N 27.1 µM | Malme-3M 21.3 µM | UACC-257 19.3 µM | KM12 17.1 µM | OVCAR-4 17.9 µM | HCT-116 16.9 µM | ACHN 18.9 µM | M14 20.1 µM | IGROV-1 18.6 µM | K562 30.7 µM | SNB-75 15.5 µM | NCI-H226 19.4 µM | NCI-H460 16.6 µM | SF-539 15.7 µM | SF-295 18.6 µM | SF-268 19.5 µM

COc1ccc(C(SCCO)(c2ccc(OC)cc2)c2ccc(OC)cc2)cc1
inactive: HCC 2998 14.4 µM | MDA-N 4.9 µM | Malme-3M 17.6 µM | UACC-257 13.5 µM | KM12 15.3 µM | OVCAR-4 21.6 µM | HCT-116 14.3 µM | SK-MEL-28 17.9 µM | ACHN 17.7 µM | M14 15.9 µM | K562 3.19 µM | SNB-75 22 µM | NCI-H226 13.9 µM | NCI-H460 15 µM | SF-539 14.4 µM | SF-295 12.4 µM | SF-268 17.3 µM

CCOC(=O)NNC(=O)NCc1cccc(CNC(=O)NNC(=O)OCC)c1
inactive: HCC 2998 > 100 µM | MDA-N > 100 µM | Malme-3M > 100 µM | UACC-257 > 100 µM | KM12 > 100 µM | OVCAR-4 > 100 µM | HCT-116 > 100 µM | SK-MEL-28 > 100 µM | M14 > 100 µM | K562 > 100 µM | SNB-75 > 100 µM | NCI-H226 > 100 µM | NCI-H460 > 100 µM | SF-539 > 100 µM | SF-268 > 100 µM

CC(C)C(O)(C(=O)OCN1C(=O)C2C3C=CC(C2C1=O)C1C2C(=O)N(COC(=O)C(O)(C(C)C)C(C)O)C(=O)C2C31)C(C)O (stereo unspecified)
inactive: HCC 2998 > 100 µM | MDA-N > 100 µM | Malme-3M > 100 µM | KM12 > 100 µM | OVCAR-4 > 100 µM | HCT-116 > 100 µM | SK-MEL-28 > 100 µM | ACHN > 100 µM | M14 > 100 µM | IGROV-1 > 100 µM | K562 > 100 µM | NCI-H226 > 100 µM | NCI-H460 > 100 µM | SF-539 > 100 µM | SF-295 > 100 µM | SF-268 > 100 µM
active: SNB-75 0.0275 µM

CC1=C(C(=O)Nc2ccccc2)C2(CCCCC2)C(C#N)=C(SCC(=O)Nc2ccc(Br)cc2)N1
inactive: HCC 2998 2.54 µM | MDA-N 3.41 µM | Malme-3M 1.82 µM | UACC-257 7.28 µM | KM12 3.2 µM | OVCAR-4 4.91 µM | HCT-116 2.51 µM | SK-MEL-28 5.73 µM | ACHN 4.45 µM | M14 3.61 µM | IGROV-1 3.34 µM | K562 3.34 µM | SNB-75 8.51 µM | NCI-H226 6.84 µM | NCI-H460 3.22 µM | SF-539 13.3 µM | SF-295 4.2 µM | SF-268 2.2 µM
